Assays:
[1] = test system: cerebellar neurons on 3T3 fibroblasts that express N-cadherin; experiment: neurite outgrowth assay; format: cell-based, mouse; settings: 10 micromolar; 18 hours culture
Protocol: Within a representative neurite outgrowth assay, neurons are cultured on a monolayer of cells (e.g., 3T3 fibroblasts) that express N-cadherin. […] For example, neurons can be cultured on monolayers of 3T3 cells transfected with cDNA encoding N-cadherin essentially as described by Doherty, P. and Walsh, F. S., Curr. Op. Neurobiol. 4:49-55, 1994; Williams, E. J., et al., Neuron 13:583-594, 1994; Hall, H., et al., Cell Adhesion and Commun. 3:441-450, 1996; Doherty, P. and Walsh, F. S., Mol. Cell. Neurosci. 8:99-111, 1994; and Safell, J. L., et al., Neuron 18:231-242, 1997. Briefly, monolayers of control 3T3 fibroblasts and 3T3 fibroblasts that express N-cadherin are established by overnight culture of 80,000 cells in individual wells of an 8-chamber well tissue culture slide. 3000 cerebellar neurons isolated from post-natal day 3 mouse brains are cultured for 18 hours on the various monolayers in control media (SATO/2% FCS), or media supplemented with various concentrations of the modulating agent. The cultures are then fixed and stained for GAP43 which specifically binds to the neurons and their neurites. The length of the longest neurite on each GAP43 positive neuron is measured by computer assisted morphometry.

[2] = test system: classical cadherin-expressing cells; experiment: cell adhesion assay, classical cadherin mediated cell adhesion; format: cell-based; settings: 1 micromolar; determined visually within 24 hours
Protocol: In these experiments, classical cadherin-expressing cells are plated under standard conditions that, in the absence of cell adhesion antagonist, permit cell adhesion. Disruption of cell adhesion is determined visually within 24 hours, by observing retraction of the cells from one another.

[3] = test system: human cancer-associated fibroblast (CAF010415); experiment: cancer-associated fibroblast viability, CELLTITER GLO; format: cell-based; settings: in vitro; measured after 24 h and 48 h
Protocol: In this study, CAFs were isolated as described by Orr et al, (On, B., et al., Oncogene, 31, 1130-1142, 2012). The cells were grown in Dulbecco's modified Eagle medium (Multicell) with 10% fetal bovine serum. CAFs are human primary fibroblasts, grown from patient prostate tumor samples. These cells are not an established cell line, nor are they immortalized, and at some point they will senesce.
In these experiments, cells were seeded in a 96-well plate (Corning) (3,000 cells/well). The next day, the drug was added at the indicated concentration (FIG. 8). After 24 h and 48 h cell viability was measured using CELLTITER GLO® (Promega, Madison, Wis.) according to the manufacturer's protocol. All assays were repeated at least 3 times in triplicate each time. The results are depicted in FIG. 8 as SEM. […] The N-cadherin antagonist compound 15 thus decreases the viability of human pancreatic cancer (PC) cells and CAFs. These observations indicate that N-cadherin antagonists can be used to treat PC.

Myeloma cells MM.1S = experiment: multiple myeloma cell viability, high content screening of live cells; format: cell-based; settings: 24 h post-treatment
Protocol: Myeloma cells MM.1S (American Type Culture Collection, Manassas, Va., USA) were cultured in RPMI-1640 medium supplemented with 10% fetal bovine serum (Thermo Fisher Scientific, Waltham, Mass., USA), 100 U/mL of penicillin, and […] of streptomycin. The cells were grown at 37° C. in a humidified incubator with 5% CO2.
In these experiments, MM.1S cells were pre-labeled with CellTrace Violate (Thermo Fisher Scientific), plated on 96-well plates (1.5×10^5 cells/well) and treated with varying concentrations of compound 15 (1-100 μM) or DMSO (vehicle control). High content screening (CellInsight CX5, Thermo Fisher Scientific) was utilized to quantify the number of live cells (i.e. calcein AM+ cells) 24 h post-treatment. FIG. 13 presents photomicrographs (upper panel) and quantitative data (lower panel) of cells treated with compound 15.

[4] = test system: Panc-1 human pancreatic cancer cells; experiment: cancer cell adhesion, visual retraction of cells; format: cell-based; settings: 24 hours, light microscopy
Protocol: (§1) In these experiments, Panc-1 human pancreatic cancer cells were maintained in Dulbecco's minimum essential medium supplemented with 10% fetal calf serum at 37° C. in 5% CO2 in air. All culture reagents were purchased from Invitrogen (Burlington, ON). Panc-1 cells (ATCC CRL-1469) were plated at 20,000 cells per well of a 4-well tissue culture slide (NalgeNunc, Naperville, Ill.). After 24 hours of culture, cells were treated for 24 hours with medium containing varying concentrations of compounds 15 and 16 dissolved in dimethylsulfoxide (DMSO; final concentration of 1% DMSO in the medium), or 1% DMSO alone in the medium and then fixed with 4% paraformaldehyde dissolved in phosphate buffered saline and stained with hematoxylin. Disruption of cell adhesion was determined visually within 24 hours, by observing retraction of the cells from one another.

[5] = test system: Panc-1 human pancreatic cancer cells; experiment: cell death, trypan blue exclusion count; format: cell-based; settings: 24 hours
Protocol: as §1
In order to determine the effect of the compounds on cell death, the medium was aspirated from the treated and untreated cultures and the non-adherent cells collected by centrifugation (1000 rpm for 5 min). The cells were resuspended in phosphate buffered saline and combined with trypan blue (Sigma). Cells were then put in a hemocytometer and the number of cells that excluded the trypan blue counted using a microscope to determine the number of live cells.

[6] = test system: human fibroblast-like synoviocytes (FLS); experiment: fibroblast-like synoviocyte cell adhesion; format: cell-based; settings: 24 hours treatment
Protocol: In these experiments, human fibroblast-like synoviocytes (FLS) (ScienCell Research Laboratories (Carlsbad, Calif.; Cat #4700) were maintained in complete Synoviocyte media (ScienCell Research Laboratories Carlsbad, Calif. Cat #4701) at 37° C. in 5% CO2 in air. FLS cells were plated at 1.5×10^4 cells per well of a 4-well tissue culture slide (NalgeNunc, Naperville, Ill.). After 24 hours of culture, cells were treated for 24 hours with medium containing varying concentrations of compounds 15 dissolved in dimethylsulfoxide (DMSO; final concentration of 1% DMSO in the medium), or 1% DMSO alone in the medium. The cells were then fixed with 4% paraformaldehyde dissolved in phosphate buffered saline and stained with hematoxylin. Disruption of cell adhesion was determined visually within 24 hours, by observing retraction of the cells from one another.

[7] = test system: 3D spheroid N-cadherin mouse fibroblast (LN5) cells; experiment: hanging drop 3D spheroid cell culture assay; format: cell-based; settings: hanging drops incubated 48 h
Protocol: In these experiments, a total of 2×10^6 originally noncohesive embryonic mouse L929 fibroblasts (L cells) were transfected by electroporation in 400 μl transfection medium (RPMI 1640, 1% dextrose, 1 mM β-mercaptoethanol) with 40 μg pMiwcN chicken N-cadherin expression vector (Miyatani, S., et al., Science, 1989, 245, 631-635; Fujimori T., et al., Development, 1990, 110. 97-104). Neomycin resistance (pwlneo, GIBCO) was included for G418 selection. Transfected cells were diluted 1/100 and placed in medium containing 800 μg/ml G418 (GIBCO). Resistant cells were grown to confluence, detached by trypsin/Ca^2+ treatment, and stained with an anti-chicken N-cadherin antibody (NCD2, Zymed) on ice for 45 min. After several washes in Hanks' balanced salt solution, cells were mixed with a fluorescein isothiocyanate-conjugated secondary antibody and placed on ice for 30 min. N-cadherin-expressing cells were then autocloned into 96-well plates by using the CloneCyt Integrated Deposition System (Becton-Dickinson Immunocytometry Systems). Positive clones were reanalyzed by FACS and the L cell line LN5 was propagated for these studies.
The 3D spheroids were generated as follows. Cells were removed from near-confluent plates with TC (0.05% trypsin and 2 mM Ca^2+ in Hank's solution for 5-10 minutes), washed once with 1 mL 4° C. Hank's solution, and suspended at a concentration of 2.5×10^6 cells/ml in complete MEM supplemented with 2 mM CaCl2 and varying concentrations of N-cadherin antagonists (Crocus Laboratories, Montreal, Quebec, Canada). The antagonists were compound 15 (MW=499.43) and compound 16 (MW=499.43). Stock solutions of the antagonists were prepared by dissolving the antagonists in DMSO at concentrations of 30 mM. Controls were made by suspending the cells as described above in the absence of antagonists with only the respective amount of DMSO added. Drops of the cell suspensions (10 microliters each) were deposited on the underside of a 10 cm tissue culture dish lid. The lid was then inverted and placed on dish containing 5 ml of PBS for hydration. Hanging drops were incubated under tissue culture conditions for 48 h, allowing the cells to coalesce at the base of the droplets and to form multi-layer aggregates. The tissue culture dish lid was then removed and the medium was gently aspirated. Aggregates (N=10-20) where then photographed under 4× lens and cell area was analyzed using ImageJ. Statistical differences were determined using ANOVA and Tukey's multiple comparison test.
Each of the antagonists tested from Crocus Laboratories contained cadherin antagonist properties at different potency levels. We determined the approximate minimum concentration needed for an anti-adhesion dose response on 3D spheroid N-cadherin mouse fibroblast (LN5) cells. […]

female mice = experiment: ovulation / corpus luteum formation in hormone-stimulated mice; format: in vivo, mouse; settings: 50 mg/kg i.p. twice per day
Protocol: In these experiments, two groups of female mice (n=6 per group) were injected i.p. (50 μL per injection) twice per day with either vehicle control (saline containing 7.5% DMSO) or vehicle containing compound 15 (50 mg/kg) at the days indicated in FIG. 10. The mice were injected with hormones to stimulate ovulation. FIG. 10 is a schematic showing the injection of hormones into mice to cause follicle maturation and injection of compound 15.

[8] = test system: 5TGM1 mouse MM plasma cells; experiment: C57BL/KaLwRij murine model of Multiple Myeloma, tumor burden; format: in vivo; settings: 50 mg/kg/day i.p. for 5 days; assessed at days 14, 21 and 28
Protocol: In these experiments, 5TGM1 mouse MM plasma cells (expressing a dual GFP and luciferase reporter construct (Noll Neoplasia 2014; Cheong 2015)) were maintained in Iscove's modified Dulbecco's medium (IMDM) with 20% fetal calf serum (FCS; Thermo Fisher Scientific, Waltham, Mass., USA) and supplements.
C57Bl/KaLwRij mice (aged 6-8 weeks) were used for all in vivo studies. For MM tumor studies, mice were inoculated with 5×10^5 5 TGM1 cells in 100 μl phosphate buffered saline by intravenous injection (i.v.) via the tail vein. Total body tumor burden was assessed at days 14, 21 and 28 using the Xenogen IVIS, as previously described (Mrozik, K. M., et al., 2015, Br. J. Haematol. 171, 387-399.). All animals used for therapy studies were randomized by age, sex and, where appropriate, tumor burden. Compound 15 was dissolved at a concentration of 10 mg/ml in saline containing 40% 2-hydroxyproprol-β-cyclodextrin. Either compound 15 (50 mg/kg/day) (N=8) or vehicle (40% 2-hydroxyproprol-β-cyclodextrin in saline) (N=7) alone was administered to mice i.p. commencing 15 minutes prior to 5TGM1 cell injection for 5 days. […] Compound 15 is therefore effective for treatment of MM.

Row | Structure (SMILES) | decrease in the mean neurite length relative to the length in the absence of modulating agent [1] | disruption of cell adhesion (retraction of the cells from one another) [2] | cell viability [3] | number of live cells (calcein AM+) on the substratum (Myeloma cells MM.1S; 10 μM) | number of live cells (calcein AM+) on the substratum (Myeloma cells MM.1S; 100 μM) | disruption of cell adhesion ([4]; 0.1 μM) | disruption of cell adhesion ([4]; 1 μM) | disruption of cell adhesion ([4]; 10 μM) | disruption of cell adhesion ([4]; 100 μM) | cell death in comparison to the control ([5]; 10 μM) | cell death in comparison to the control ([5]; 100 μM) | concentration range in which effects on FLS cells (disruption of cell adhesion) can be seen [6] [µM] | concentration at which complete disruption occurred [7] [µM] | minimum concentration required to observe cohesion disruption [7] [µM] | corpus luteum formation (luteinized CL-like structures in ovaries) (female mice) | ovulation (female mice) | total body tumour burden [8] | cell death in comparison to the control ([5]; 1 μM)
1 | COc1ccc(OC[C@@H](O)CNC2CCN(C[C@H](O)COc3ccc(Cl)c(Cl)c3)CC2)cc1 [Compound 15, (S)-1-(3,4-Dichlorophenoxy)-3-(4-((S)-2-hydroxy-3-(4-methoxyphenoxy)propylamino)piperidin-1-yl)propan-2-ol] | at least 50% | disruption of cell adhesion is observed | decreases human cancer-associated fibroblast (CAF010415) viability | caused a decrease in the number of live cells | caused a decrease in the number of live cells | not disrupted | disrupted cell adhesion | disrupted cell adhesion | disrupted cell adhesion | caused cell death | caused cell death | 5 to 50 | 75 | 40 | fewer clearly luteinized CL-like structures | inhibits ovulation | caused a decrease in tumour burden | –
2 | COc1ccc(OC[C@@H](O)CNC2CCN(C[C@@H](O)COc3ccc(Cl)c(Cl)c3)CC2)cc1 [Compound 16, (R)-1-(3,4-Dichlorophenoxy)-3-(4-((S)-2-hydroxy-3-(4-methoxyphenoxy)propylamino)piperidin-1-yl)propan-2-ol] | – | – | – | – | – | disrupted cell adhesion | disrupted cell adhesion | disrupted cell adhesion | disrupted cell adhesion | caused cell death | caused cell death | – | 75 | 50 | – | – | – | caused cell death

Source: patent US10647672B2, “Modulators of cell adhesion, methods and compositions therefor” (Zonula Incorporated, priority 2017, dated 2020)
